# Legend:
# Rac = assay: Endogenous Rac expression in lung tissue (Western blot); assay type: in vivo, mouse; details: oligonucleotides injected into tail veins, mice sacrificed after 12 hr
# Excerpt: FIGS. 10a and 10b show activation of Rac in the lung tissue by OVA provocation and inhibition of endogenous Rac expression by antisense Rac oligonucleotide treatment. Lung samples were homogenized with micropestle and washed with PBS twice. FIG. 10a depicts Western blot analysis of Rac expression in mouse model of asthma. For membrane protein preparation, cells were suspended in Buffer A and cells were ruptured by passing through 21-G syringe. After ultracentrifugation, protein samples in pelleted membrane fraction were dissolved with buffer A containing 1% Triton X-100. FIG. 10b depicts Western blot analysis of Rac expression in mouse model of asthma administered with asRac. For whole cell lysate preparation, cells from the lung tissues of buffer, control Rac oligonucleotide or antisense Rac oligonucleotide injected mice were suspended with lysis buffer and incubated for 20 min. After centrifugation of the samples, protein quantification was carried out using Bradford reagent and Western blot analysis was performed.
# Oligonucleotides, from Genotech Co. (Korea), were synthesized with a phosphorothioate backbone to improve the resistance to endonuclease. The antisense oligonucleotide consisted of 17 nucleotides analogues to the 5′ end of the murine Rac mRNA sequence, which spans the translation initiation site. […]
# [1] = system: acute lung injury induced by endotoxin; details: pigs, cited from earlier work
# eosinophil = details: concentration of 10 μM; cited from earlier work
# BLT1 mRNA = BLT1 mRNA level in lung of OVA-challenged mice (semiquantitative RT-PCR); assay type: in vivo, mouse; details: C57BL/6 mice, 1.6 mg/kg i.v. 24 hr and 1 hr before 10% OVA challenge
# Description: Female BALB/c mice and C57BL/6 mice (7 weeks old; 18-20 g) were obtained from Orientbion Inc. (Seoungnam, Korea). Sensitization and challenge were carried out as described previously with some modification (28). Briefly, female C57BL/6 mice (7 weeks old; 18-20 g) were immunized by intraperitoneal (i.p.) injection of 200 μg ovalbumin (OVA) emulsified in 2.5 mg of adjuvant aluminum hydroperoxide gel (alum) (Pierce, Rockford, Ill.). A second i.p. injection of 20 μg OVA adsorbed onto alum (2.5 mg) was administered 10 days later. After an additional 10 days, mice were exposed to an aerosol of 1% OVA in saline for 30 min daily on 3 consecutive days. On day 25, mice were finally challenged by provocation with 10% OVA aerosol. For inhibition experiments, sense or antisense BLT2 (1.6 mg/kg) was injected intravenously 24 h and then 1 h before the 10% OVA challenge. The mice were then killed on day 27 to assess asthmatic phenotypes. Antisense BLT2 oligonucleotide (5′-[…]-3′ (SEQ ID NO: 15)), sense BLT2 oligonucleotide (5′-[…]-3′ (SEQ ID NO: 16)).
# Total RNA was extracted from lung samples using Easy-blue RNA extraction reagent (Intron, Korea). […] For the semiquantitative analysis of transcripts, the optimal PCR conditions were first determined by linear amplification of glyceraldehyde-3-phosphate dehydrogenase (GAPDH). […]
# OVA-challenged mice = assay: Recruitment of CD4+ and CD8+ T cells into BAL fluid (flow cytometry); assay type: in vivo, mouse; details: BAL fluid 12 hr after 10% OVA challenge
# Excerpt: FIGS. 8a and 8b show recruitment of T lymphocytes into airways. FIG. 8a depicts FACS analysis showing recruitment of CD4+ T cells into the BAL fluid of mice 12 hr after aerosol OVA challenge. FIG. 8b depicts FACS analysis showing recruitment of CD8+ T cells into the BAL fluid of mice 12 hr after aerosol OVA challenge. BAL fluid was collected 12 hr after 10% OVA challenge and washed with PBS. The leukocytes present were stained with FITC-conjugated anti-mouse TCR chain and PE-cy5 anti-mouse CD8a or PE rat anti-mouse CD4 after blocking with anti-FcRyantibody. Samples were then analyzed by flow cytometry to assess T lymphocyte recruitment. Data are means±SEM (n=6 in each group). *P<0.05 vs. OVA/asBLT2. For flow cytometric analysis, the cells in the BAL fluid were suspended in 50 μl of PBS containing 0.01% sodium azide and 0.1% BSA. BAL leukocytes were incubated for 30 min with 2.4G2 anti-FcγIII/II receptor (BD PharMingen) and stained for 30 min at 4° C. with FITC-conjugated anti-mouse TCR. chain (BD PharMingen) and PE-cy5 anti-mouse CD8a (BD PharMingen) or PE rat anti-mouse CD4 (BD PharMingen). Cytofluorimetry was performed with a FACS Caiibur™ (Becton Dickinson, Franklin Lakes, N.J.), and the results were analyzed with CellQuest software (Becton-Dickinson).
compound,measurement,setting,value
"antisense Rac: phosphorothioate 17-mer to the 5′ end of murine Rac mRNA, 5′-CACTTGATGGCCTGCAT-3′ (SEQ ID NO: 22) (listed as DNA, chemistry not fully specified)",endogenous expression of Rac in the lung tissues,Rac,inhibited
"CCc1cc(C(C)=O)c(O)cc1OCCCCCC(C)(C)c1nnn[nH]1 [LY255283, 1-[5-ethyl-2-hydroxy-4-[[6-methyl-6-(1H-tetrazol-5-yl)heptyl]oxy]phenyl]-ethanone, reference compound]",activation of neutrophils,[1]; endotoxin,limits activation of neutrophils
same,acute lung injury induced by endotoxin,[1],prevents acute lung injury
same,inhibition of eosinophil chemotaxis,eosinophil,80%
"antisense BLT2: Antisense BLT2 oligonucleotide 5′-GCTCAGTAGTGTCTCATTCC-3′ (SEQ ID NO: 15) (listed as DNA, chemistry not fully specified)",BLT1 expression in the lung (mRNA),BLT1 mRNA,without interfering
same,effect on T cell trafficking into airways,OVA-challenged mice,no inhibitory effect

# — US9255272B2, “Use of inhibitors of leukotriene B4 receptor BLT2 for treating asthma” (Korea University Research & Business Foundation, priority 2007, dated 2016)
